Data as given in patent publication US20200231685A1, “CONJUGATES FOR TREATING INFLAMMATORY DISEASE AND IDENTIFICATION OF PATIENTS LIKELY TO BENEFIT FROM SUCH TREATMENT” (The University of Bristol, priority 2013, published 2020).

Experiments:
[1] = system: Experimental Autoimmune Uveitis (EAU); type: in vivo, mouse; conditions: Day 18; PMA and ionomycin 4 hours
Th17 (CCR6+) cells = experiment: Intracellular IL-17 / IFN-γ expression by flow cytometry in human Th17 cultures; type: cell-based
Source text: Absolute expression was plotted on a log2 scale colour coded from low to high expression. […] All data are represented as mean±SEM.
(§1) CCR6 positive and CCR6 negative CD4^+ T cells were purified and cultured in the presence of polarising cytokines for two weeks. […] Intracellular cytokines were quantified by flow cytometry (FIG. 23A) and percentage suppression calculated in relation to an untreated control (FIG. 23B). Data represents the mean expression of three to four normal volunteers, with error expressed as standard deviation.
Therefore, to determine whether in vitro, human CD4+Th17 T cells were responsive to glucocorticoids, we generated an IL-17 secreting CD4+ T cell subset using the innate expression of CCR6. […] As a result of glucocorticoid binding the glucocorticoid receptor (GR), the GR translocates to the nucleus and binds to glucocorticoid-response elements within the DNA. […] We then compared the translocation of the GR in Th17 and Th0 cells.
Cell Cultures. Murine Naive T cells were obtained from lymph nodes and spleens of OT-II/3A9 mice using CD4 positive selection kits following the manufacturer's instructions (Miltenyi Biotech). Splenocytes from respective wild-type mice were irradiated and mixed with the CD4^+ T cells at a 1:10 ratio. […] All cells were kept in a 37° C., 5% CO2 humidified incubator. Cells were used after two rounds of activation. Human peripheral CD4^+CCR6^− (Th0) and CD4^+CCR6^+ (Th17) cells were FACS sorted, resuspended to 2×10^6cells/ml in complete RPMI-1640 (Invitrogen) supplemented with 10% FCS, L-glutamine and Penicillin/streptomycin (all PAA Laboratories Ltd, UK), stimulated with plate-bound 5 μg/ml anti-CD3 and 5 μg/ml anti-CD28 antibodies (eBioscience, US) (Th0) or with plate-bound antibodies and a polarizing cytokine cocktail of 20 ng/ml IL-6, 10 ng/ml IL-23, 10 ng/ml IL-1β (R&D Systems, US), 100 ng/ml anti-IFN-γ, 100 ng/ml anti-IL-4 (eBioscience, US) (Th17) for 3 days. […]

Th0 (CCR6-) cells = experiment: Intracellular IFNγ expression by flow cytometry in human Th0 cultures; type: cell-based; conditions: 24 hrs incubation
Source text: as §1, with “FIGS. 23A-23B show suppression of IL-17A in human Th17 (CCR6+) cells and IFNγ cytokine production in human Th0 (CCR6^−) and Th17 cells. CCR6 positive” for “CCR6 positive”
Cell Cultures. Murine Naive T cells were obtained from lymph nodes and spleens of OT-II/3A9 mice using CD4 positive selection kits following the manufacturer's instructions (Miltenyi Biotech). Splenocytes from respective wild-type mice were irradiated and mixed with the CD4^+ T cells at a 1:10 ratio. […] All cells were kept in a 37° C., 5% CO2 humidified incubator. Cells were used after two rounds of activation. […]

CD4+ T cells = experiment: Inhibition of isolated CD4+ T cell proliferation (tritiated thymidine incorporation); type: cell-based, human
Procedure: Proliferation was measured by tritiated thymidine incorporation (ccpm). Data represents the mean of two normal volunteers, with error expressed as standard deviation.
T Cell Proliferation Assays. T cell proliferation was measured by pulsing with 18.5 kBq [^3H] thymidine (GE Healthcare, US) per well for the final 12 hours of cultures and determining thymidine uptake in counts per minute (c.p.m).

Question: With `C[C@@H]1C[C@H]2[C@@H]3CCC4=CC(=O)C=C[C@]4(C)[C@@]3(F)[C@@H](O)C[C@]2(C)[C@@]1(O)C(=O)CO` [Dex, dexamethasone] as the compound, how does the “suppression of IFN-γ expression in eye infiltrating CD4+ cells” value [1] read?
Answer: 45%

Question: What does the source list for `C=CC[C@@H]1/C=C(\C)C[C@H](C)C[C@H](OC)[C@H]2O[C@@](O)(C(=O)C(=O)N3CCCC[C@H]3C(=O)O[C@H](/C(C)=C/[C@@H]3CC[C@@H](O)[C@H](OC)C3)[C@H](C)[C@@H](O)CC1=O)[C@H](C)C[C@@H]2OC` [tacrolimus]?
Answer: suppression of IFNγ production in Th17 cells (Th17 (CCR6+) cells; 24 hrs incubation): equally suppress; suppression of IL-17A production in Th17 (CCR6+) cells (Th17 (CCR6+) cells; 24 hrs incubation): equally suppress; dose required for cytokine suppression, less than cyclosporine A (Th17 (CCR6+) cells; IL-17 in Th17, IFNγ in Th17 and Th0 cells): 20 ×; suppression of IFNγ production in Th0 (CCR6-) cells (Th0 (CCR6-) cells): equally suppress; concentration for full inhibition of CD4+ cell proliferation, lower compared with cyclosporine A (CD4+ T cells): 20 fold; dose achieving the same inhibition of CD4+ T cell proliferation (CD4+ T cells): 10 ng/mL
